Experimental data: patent publication US20210186947A1, “TOMM6-INTERACTING EXTRACTS AND COMPOUNDS FOR USE IN THE TREATMENT AND PROPHYLAXIS OF NERVOUS SYSTEM DISEASES, ATHEROSCLEROSIS, HEPATITIS B INFECTION AND HUMAN PAPILLOMA VIRUS (HPV) INFECTION” (ETH ZURICH, priority 2018, published 2021)

Legend:
neuropeptide Y (Npy) = assay: Whole genome microarray gene expression analysis of aortic genes: Npy; assay type: in vivo; conditions: ApoE-/- mice, 10 mg/kg/day for 8 months
Experimental: (§1) Whole genome microarray gene expression profiling was performed with aortic specimens isolated from 9-month-old ApoE−/− mice without treatment and with oral treatment for 8 months with alizarin (10 mg/kg/day), and untreated age-matched B6 control mice. Total RNA was isolated by the RNeasy Mini kit according to the protocol of the manufacturer (Qiagen). RNA purity was between 1.8 and 2 as determined by the absorbance ratio of 260/280. RNA quality and absence of signs of degradation were also controlled by RNA electrophoresis on a denaturing agarose gel by the presence of bright bands of 28S and 18S ribosomal RNA. Total RNA was processed for whole genome microarray gene expression profiling with the GeneChip One-Cycle Target Labeling System (Affymetrix) according to the protocol of the manufacturer (Affymetrix GeneChip Expression Analysis Technical Manual Rev. 5). […]
(§2) Alzheimer's Disease (AD) is the most frequent form of dementia in the elderly. […] Atherosclerotic lesion area was assessed with oil red O-stained aortas isolated from 9-month-old ApoE−/− mice (FIG. 17A). […] The aortic expression levels of neuronal marker genes of alizarin-treated ApoE−/− mice were determined compared to untreated ApoE−/− mice and untreated B6 mice without atherosclerosis (FIG. 17D,E).

Salmonella strain TA1537 = conditions: cited from earlier work
[1] = system: synaptosomal nerve-associated protein 25 (Snap25); assay: Whole genome microarray gene expression analysis of aortic genes: Snap25; assay type: in vivo; conditions: ApoE-/- mice, 10 mg/kg/day for 8 months
Experimental: as §1, §2

Tomm6 = target: T1, Tomm6 (Mus musculus, UniProt Q9CQN3); assay: Immunoblot detection of hippocampal Tomm6 protein in treated Tg2576 mice; assay type: in vivo; conditions: aged Tg2576 mice treated for 6 months
T1 construct: hippocampi were isolated from 5-10 aged Tg2576 mice, pulverized under liquid nitrogen and solubilized; from tissue; host or cells: hippocampus of Tg2576 mice
T1 sequence (Q9CQN3 1-74): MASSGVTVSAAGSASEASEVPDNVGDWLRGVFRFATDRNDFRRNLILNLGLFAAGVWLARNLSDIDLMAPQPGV

## O=C1c2ccccc2C(=O)c2c1ccc(O)c2O [Compound-1, 1,2-dihydroxyanthraquinone]
Neuropeptide Y (Npy)
  aortic expression level of Npy: not down-regulated and maintained at the levels of the non-transgenic B6 controls
Salmonella strain TA1537
  mutagenicity in the Ames test: could be mutagenic
[1]
  aortic expression level of Snap25: not down-regulated and maintained at the levels of the non-transgenic B6 controls
Tomm6
  hippocampal protein content of Tomm6: substantially increased
